Series [1] is described as follows: Pharmacokinetics in brain and serum of C57BL/6 mice (UHPLC-MS/MS). It is filed as in vivo, mouse. As to conditions: 10 mg/kg I.P. single dose. The method, then:
Pharmacokinetics Studies. […] Brain and serum samples were collected at 1, 2, 3, 4, 8 and 12 h (n=3 per time point). Animals injected with vehicle (DMSO) were used for background subtraction. Stock solution of the drug (1 mg/mL) and internal standards were prepared in methanol. Intermediate solutions used for the calibrators and control samples were serial-diluted in methanol/water (1:1). Preparation of the calibration curve standards and quality samples (QC) were performed by mixing the intermediate dilutions in blank samples (brain homogenates, serum). […] Serum and brain samples were stored at −80° C. and then thawed to room temperature prior to preparation. The brains were homogenized in MilliQ water (1 mg brain: 10 μL water). Proteins were precipitated in both brain and serum samples by mixing 25 μL aqueous sample with 75 μL internal standard working solution. The mixture was centrifuged at 12,300 g for 5 min. Thereafter, 75 μL of each supernatant and 25 μL of MilliQ water were pipetted into a 96-well PCR plate (Fisher Scientific, Dawsonville, GA,USA).
Briefly, the UHPLC-MS/MS system included an Elute HTG binary gradient UHPLC pump, an Elute column oven and an EVOQ Elite triple quadrupole mass spectrometer (all from Bruker Daltonik GmbH, Bremen, Germany) equipped with an electrospray ionization (ESI) source operating in a positive mode. The samples were injected by use of a PAL auto sampler (CTC Analytics, Zwingen, Switzerland) equipped with a 10-μL sample loop; the samples were kept in a PAL stack cooler for 6 microtiter plates and operating at +6° C. The system was controlled by a Compass 2.0/HyStar 4.0 software (Bruker); the compound screening and quantitation was performed by a TASQ 2.2 data acquisition and processing software (Bruker). The mass spectrometer was supplied by nitrogen and air generated by a Genius 3045 nitrogen/air generator (Peak Scientific Instruments, Inchinnan, Scotland, UK). The ESI parameters were as follows: probe gas flow 50, nebulizer gas flow 60, probe temperature +400° C., cone gas flow 20, cone temperature +350° C., CID gas Ar 1.5 mTorr. The mass spectra were scanned in the MRM mode to find the optimal collision energies for the test compounds and their respective precursor ions.
For chromatographic separation, an YMC-Ultra HT Hydrosphere C18 column (2.0×100 mm, 2 μm particle size) and an YMC-Hydrosphere 2.1×5 mm guard column (YMC Co. Ltd., Kyoto, Japan) were used. The mobile phase A was 10 mM ammonium formate, pH 4.3, in water; the mobile phase B was 10 mM ammonium formate, pH 4.3, in 10% water, 50% acetonitrile and 40% isopropyl alcohol. The mobile phase gradient was as follows (min—A/B%): 0 min—50/50, 0.5 min—50/50, 2.0 min—20/80, 3 min—20/80, 3.1 min—50/50, 4.5 min—50/50. The flow rate was 450 μL/min, and the column temperature was set at 50° C. The sample injection volume was 10 μL.

In series [2] the test system is alpha-synuclein ubiquitination. Kind of series: Alpha-synuclein ubiquitination in TgA53T mice (IP/WB, immunostaining co-localization). It counts as in vivo, mouse. The following applies: midbrain extracts, 40 mg/kg compared to DMSO and 10 mg/kg. As for the experimental part: Immunoprecipitation (IP). Mouse brain tissues were homogenized in 1×STEN buffer, and the soluble fraction was isolated as indicated above. The lysates were pre-cleaned with immobilized recombinant protein A/G agarose (Santa Crutz, sc-2003, Dallas, TX, USA) and centrifuged at 2500×g for 1 min at 4° C. The supernatant was recovered and quantified by protein assay, and a total of 300 μg protein was incubated overnight at 4° C. with primary anti-alpha-synuclein (1:200, Thermofisher, AHB0261) mouse antibodies or anti-ubiquitin (1:100) (Thermo Fisher, PA3-16717, Rockford, IL, USA) antibodies in the presence of sepharose G and an IgG control with primary antibodies. The immunoprecipitates were collected by centrifugation at 2500×g for 3 min at 4° C., washed 5× in PBS, with spins of 3 min, 2500×g using detergent-free buffer for the last washing step, and the proteins were eluted according to Pierce instructions (Pierce #20365, Rockford, IL, USA). […]
Immunohistochemistry was performed on the 20 μm thick brain sections for evaluation of ubiquitination of alpha-synuclein. […] The optic densitometry of co-localization of ubiquitin with alpha-synuclein was measured using Image J. Tyrosine hydroxylase (TH) is the limiting enzyme in DA synthesis, so probing for TH+ neurons will help to evaluate the status of DA producing neurons in the SN and their terminals in the striatum. […]

Series [3] relates to human SHSY5Y neuroblastoma cells. Kind of series: Cell viability by MTT and LDH assays. As to conditions: 5 hours, up to 1 mM concentration. Background: Tetrazolium dyes change colour on reduction, which living cells bring about.
Description: Human SHSY-5Y neuroblastoma cells were cultured in Dulbecco's Modified Eagle's Medium (DMEM) (ThermoFisher Scientific; Waltham, MA) with 10% Fetal Bovine Serum (FBS) (ThermoFisher) and 1% Penicillin-Streptomycin (PenStrep, ThermoFisher) and incubated at 37° C. under atmospheric oxygen concentrations (21%) with 5% CO2. SHSY-5Y cells were cultured in DMEM with Ham's F12 (1:1) (ThermoFisher) with 20% FBS, 1% PenStrep. Cells were plated at a density tailored to reach 70-80% confluence at the beginning of every experiment. SH-SY5Y cells were transiently transfected for 24 hours with human wild-type α-synuclein using Fugene HD transfection reagent (Promega; Madison, WI) before fresh culture media and drug were added.
Cell viability was determined via lactate dehydrogenase assay on culture media, (ThermoFisher) and MTT assay on plated cells (ThermoFisher).

As usually defined, the AUC is concentration integrated over time. A lower AUC goes with less exposure. Broadly, the Tmax is the time at which the peak concentration occurs. As for `Fc1ccc2nccc(OCc3ccccc3)c2c1` [4-(Benzyloxy)-6-fluoroquinoline], in series [1] (10 mg/kg), the Brain/serum ratio is given as 28.0%. In addition, in series [1] (brain), the AUC was 0.1643 µM·h and the “T1/2 (elimination)” value was found to be 2.32 h. In series [1] (serum), the AUC stood at 0.5994 µM·h, the “T1/2 (elimination)” value came to 1.84 h and the Tmax worked out at 1 h. Besides, the “alpha-synuclein ubiquitination by immunoprecipitation and WB” value in series [2] is given as “increased ubiquitination”. Further, the “cell death in two viability assays (MTT and LDH)” value in series [3] is recorded as “do not cause cell death”.

(Values after patent publication US20240092800A1, “USP13 INHIBITORS AND METHODS OF USE THEREOF” (GEORGETOWN UNIVERSITY, priority 2021, published 2024).)
